Entries after “also recorded” stand apart in the source; their conditions may differ. Read-outs that look alike come from different tables or passages of the source.
Assays:
Assay type in all cases: in vivo
[1] = test system: bone cancer pain (BCP) rat model; assay: Analgesic effect on mechanical hyperalgesia (PWT) in BCP rat model; conditions: for analgesic effect on BCP, low dose: repeated
Method: The tumor cell implantation (TCI) surgery was performed according to the method proposed by Medhurst S J, et al (Medhurst S. J., Walker K., Bowes M., Kidd B. L., Glatt M., Muller M., et al. (2002). A rat model of bone cancer pain. Pain 96 129-140). Walker 256 mammary gland carcinoma cells were transferred from a liquid nitrogen tank, thawed quickly in a 37° C. water bath and loaded into a centrifugal tube. Then the cells were added with an appropriate amount of normal saline and centrifuged at 1200 r/min for 6 min. The supernatant was discarded, and the cells were washed again, and suspended with phosphate buffered saline (PBS) to 1×10^7/mL. Young female SD rats, weighing 90-100 g, were intraperitoneally injected with 0.5 mL of mammary gland carcinoma cells, and a large amount of ascites occurred after 6-7 days of the injection. 10 mL of ascites was extracted and centrifuged for 5 min. The precipitate was washed with normal saline and then diluted with PBS to 1×10^5/mL. The rats were anesthetized with 10% chloral hydrate and shaved, and a 1-cm incision was made in the upper half skin of the right tibia to expose the bone surface with a minimal damage to the surrounding muscle or blood vessels. The bone was pierced with a 4 # needle at 5 mm below a knee joint distal to an epiphysial growth plate, and the needle was inserted to a depth so that it can be pushed into the medullary cavity. The needle was then removed, and a 10 […] needle containing cells to be injected was inserted into the medullary cavity, determining whether the needle was located in the medullary cavity by withdrawal. 5 mL (1×10^5/mL) of cancer cells were injected into the medullary cavity, and whether there are cells or blood leaking out from the injection site was observer.
The needle was kept in the medullary cavity for 1 min and then was withdrawn to enable the full cell spreading, and the injection site was pressed by a cotton swab for 1 min and closed with bone cement. The wound was sutured and treated with penicillin powder. The PWT was measured 3 days after modeling, where those rat models with a significant lower PWT were considered as successful BCP rat models, and the undesirable models were removed.
(S1) Healthy adult SD rats, weighing 180-220 g, were selected, numbered on tails and transferred to the same cage (15 rats in total).
(S2) The rats were maintained in the measuring room for 2 h for adaptation.
The measurement was repeated 3-5 times for each rat with an interval of 5-10 min, and the results were averaged. The rats were allowed to rest for several hours to build a BCP model.
Those unsuccessful models were removed, and on the 22nd day after modeling, the successfully-established models were randomly divided into 3 groups, where the groups A-C were subcutaneously with normal saline, […], respectively. 1.5 h later, the PWT of the right hind paw of each group was measured. Each rat was measured 3-5 times with an interval of 5-10 min, and the PWTs were averaged as the practical PWT (unit: g). The drug administration was performed twice a day (at 9:30 a.m. and 4:30 p.m.) for consecutive 4 days, and the PWT of each group before and after administration was measured in the morning every day. […]

[2] = test system: morphine analgesic tolerance, neuropathic pain rat model
Method: (1) 18 healthy adult SD rats, weighing 180-220 g, were selected to build a CCI-induced neuropathic pain model. On the 7th day after modeling, those successfully-established models were randomly divided into 3 groups, where the group A was injected with normal saline; the group B was injected with morphine (15 μg, 10 μL); and the group C was injected with 0.2 μg/kg of the short peptide P10581, and then injected with morphine (15 μg, 10 μL) 30 min later. 1 h later, the PWT of each group was recorded.
(2) Each group was injected with the drug respectively at 9:00 a.m. and 5:30 p.m. from 7th day to 11th day after modeling, and the PWT of each group was measured before and after the administration in the morning every day.

[3] = test system: morphine analgesic tolerance, neuropathic pain rat model; conditions: for analgesic effect of morphine restored: after 5-day continuous administration
Method: (1) 15 healthy adult SD rats, weighing 180-220 g, were selected to build a CCI-induced neuropathic pain model. 6 days after the modeling, successful models were randomly divided into 3 groups, where the group A was injected with 0.1 μg/kg of the short peptide P10581; the group B was injected with 5 mg/kg of the morphine; and the group C was injected with 0.1 μg/kg of the short peptide P10581, and then with 5 mg/kg of the morphine 30 min later. 1 h later, the PWT of each group was recorded.
(2) Each group was injected with the drug in the afternoon on the 6th day after the modeling, and from the 7th day to the 12th day, the drug administration was performed at 9:00 a.m. and 5:30 p.m. (5 mg/kg of morphine twice a day; and 0.1 μg/kg of the short peptide P10581 was administered 30 min before the morphine injection). The PWT of rats in each group before and after administration in the morning was measured every other day.
(1) 30 healthy adult SD rats, weighing 180-220 g, were selected to build a CCI-induced neuropathic pain model. Those successfully-established models were randomly divided into 6 groups on the 6th day, where the groups A was injected with normal saline; and the groups B-F were injected with 0.01 μg/kg, 0.025 μg/kg, 0.1 μg/kg, 0.2 μg/kg and 0.4 μg/kg of the short peptide P10581, respectively. 30 min later, the groups A-F were further injected with 5 mg/kg of the morphine, and 1 h later, the PWT of each group was recorded.
(2) Each group was injected with the drug in the afternoon on the 6th day after modeling, and from the 7th day to the 10th day, the drug administration was performed at 9:00 a.m. and 5:30 p.m. (injected twice a day consecutively for 5 days), and the PWT of each group before and after the administration in the morning was measured every other day.
In the FIG. 10B, ΔPWT (drug) and ΔPWT (Baseline) were calculated as follows: ΔPWT(drug)=PWT(post-drug)−PWT(pre-drug); and ΔPWT(Baseline)=PWT(before CCI)−PWT(after CCI).
The intensity of the relieving effect on the tolerance was represented by ΔPWT (drug)/ΔPWT (Baseline), where the ΔPWT (drug) indicated a difference between pain thresholds before and after Mor+P10581 injection in the morning.

[4] = 14.4 μg/kg, twice a day, 4 days

| Molecule | analgesic effect on BCP, low dose ([1]; 0.2 μg/kg S.C.) | analgesic effect on BCP, low dose ([1]; 0.4 μg/kg S.C.) | analgesic effect on BCP [1, 4] | analgesic tolerance after repeated injection [1, 4] | effect on morphine analgesic tolerance ([2]; 0.2 μg/kg peptide intrathecal 30 min before morphine 15 μg) | effect on morphine analgesic tolerance ([3]; 0.1 μg/kg peptide 30 min before 5 mg/kg morphine, twice a day) | restoration of analgesic effect of morphine ([3]; 0.1 μg/kg peptide + 5 mg/kg morphine, 5th day) | analgesic effect of morphine restored, ΔPWT (drug)/ΔPWT (Baseline) ([3]; 0.2 μg/kg peptide, after 3-day consecutive injection of morphine) [%] | analgesic effect of morphine restored ([3]; 0.2 μg/kg peptide) | effect on morphine analgesic tolerance ([3]; 0.4 μg/kg peptide + 5 mg/kg morphine (FIGS. 10A, 10B)) | effect on morphine analgesic tolerance ([3]; 0.4 μg/kg peptide, after 3-day consecutive injection of morphine) | analgesic effect of morphine restored ([3]; 0.4 μg/kg peptide) | dose at which morphine analgesic tolerance is effectively relieved ([3]; neuropathic pain, rats) [µg/kg] | analgesic effect / tolerance after repeated injection ([1]; rat, in vivo) | analgesic effect on BCP ([1]; rat, in vivo) | analgesic effect of morphine on neuropathic pain ([2]; rat, in vivo) | analgesic effect of morphine alone ([3]; rat, in vivo) |
| --- | --- | --- | --- | --- | --- | --- | --- | --- | --- | --- | --- | --- | --- | --- | --- | --- | --- |
| WKCNPNDDKCCRPKLKC [P10581] | no analgesic effect | no analgesic effect on BCP | significantly alleviate the BCP | without developing the analgesic tolerance | completely eliminated | partially relieved the morphine analgesic tolerance | restored by half | 90.1 | higher than 60% | completely reversed | completely reverse the morphine analgesic tolerance | higher than 85% | ≥ 0.01 | – | – | – | – |
| CN1CC[C@]23c4c5ccc(O)c4O[C@H]2[C@@H](O)C=C[C@H]3[C@H]1C5 [morphine, reference compound] | – | – | – | – | – | – | – | – | – | – | – | – | – | disappeared at day 4; also recorded: completely lost the analgesic effect on BCP | significantly alleviated | completely disappeared | almost completely disappeared |
